Measurements published in patent US9618524B2, “Method, composition, isolation and identification of a plaque particle and related biomarker” (Plaxgen Inc., priority 2012, dated 2017).

What was measured:
Assay in all cases: Mass spectroscopy proteomics, semi-quantitative binding affinity of serum proteins (plaqueproteome, Table 2)
Conditions in all cases: higher number = stronger affinity
[1] = tested on: High Density cholesterol (Chl Large) plaque particles; parameters: species or system human
Procedure, shortened: (§1)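 Serum or plasma from atherosclerotic subjects, as 50% serum, was incubated with 30 μg cholesterol aggregates for 1 h at 37 °C. High- and low-density particles were then flow-sorted, trypsin-digested and analysed by MS/MS. Proteins were identified by Sequest search against human UniProt and validated with Protein Prophet.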

[2] = tested on: Low density cholesterol (Chl small) plaque particles; parameters: species or system human
Procedure, shortened: as §1

[3] = target: T1, Abeta-42 plaque particles (Homo sapiens, UniProt P05067)
T1 construct: Abeta 1-42
Procedure, shortened: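 AD patient serum or plasma (50% in PBS) was incubated with Abeta-42 aggregates (30 μg) for 1 h at 37 °C, then stained with Thioflavin S for 30 min. Labeled particles were FACS-sorted, trypsin/Lys-C digested overnight and analyzed by MS/MS. Sequest searched human UniProt; Scaffold/Protein Prophet validated the identifications.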

[4] = tested on: Tau plaque particles; parameters: species or system human
Procedure, shortened: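 Synthetic Tau-74 and Tau-275 peptides (1 mg/mL PBS, 37° C, 2 h) aggregated; 30 μg aggregates incubated with 50% serum/plasma 1 h at 37° C, stained with Thioflavin S, and plaque particles sorted by flow cytometry. Bound proteins trypsin-digested and identified by MS/MS against human UniProt.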

[5] = target: T2, alpha-synuclein plaque particles (Homo sapiens, UniProt P37840)
T2 construct: 140 amino acids polypeptide
Procedure, shortened: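 AD-subject plasma or serum (800 μL of 50%) mixed with 30 μg preformed alpha-synuclein aggregates for 1 h at 37 °C; Thioflavin S-positive particles isolated by flow sorting. After reduction, acrylamide alkylation and overnight tryptic digestion, serum proteins identified by MS/MS with Sequest and Scaffold.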

Row | Substance | Semi-quantitative analysis of proteins binding to different plaque particles: Chl Large [1] | Semi-quantitative analysis of proteins binding to different plaque particles: Chl small [2] | Semi-quantitative analysis of proteins binding to different plaque particles: Abeta-42 [3] | Semi-quantitative analysis of proteins binding to different plaque particles: Tau [4] | Semi-quantitative analysis of proteins binding to different plaque particles: Synuclein [5]
1 | Ig kappa chain V-I region DE | 5 | 1 | 5 | 2 | 3
2 | Cluster of Haptoglobin | 29 | 31 | 25 | 26 | 24
3 | Ig heavy chain V-III region BRO | 5 | 6 | 7 | 5 | 4
4 | Complement C1q subcomponent subunit B | 1 | 0 | 0 | 2 | 2
5 | Apolipoprotein C-I (TPDVSSALDKLKEFGNTLEDKARELISRIKQSELSAKMREWFSETFQKVKEKLKIDS) | 1 | 1 | 2 | 1 | 0
6 | Isoform MBP-1 of Alpha-enolase | 0 | 0 | 7 | 0 | 0
7 | Vitronectin | 4 | 2 | 4 | 4 | 4
8 | Platelet factor 4 | 1 | 0 | 2 | 1 | 1
9 | Alpha-1-acid glycoprotein 1 | 9 | 8 | 12 | 11 | 7
10 | Tubulin beta-4B chain | 0 | 0 | 0 | 5 | 0
11 | Hemopexin | 22 | 16 | 11 | 16 | 18
12 | Histone H1.2 | 0 | 0 | 2 | 0 | 0
13 | POTE ankyrin domain family member E | 0 | 0 | 18 | 0 | 18
14 | Isoform 3 of Fibronectin | 25 | 19 | 9 | 23 | 16
15 | Apolipoprotein A-II | 8 | 6 | 5 | 10 | 7
16 | Ig heavy chain V-III region NIE | 1 | 1 | 0 | 0 | 1
17 | Ig heavy chain V-III region VH26 | 2 | 3 | 7 | 3 | 1
18 | Phosphatidylcholine-sterol acyltransferase | 1 | 0 | 0 | 0 | 1
19 | Immunoglobulin J chain | 1 | 1 | 0 | 1 | 2
20 | Complement C3 | 73 | 67 | 63 | 85 | 71
21 | Transthyretin | 25 | 21 | 14 | 13 | 23
